What was measured:
Aβ1-42 = target: T1, Aβ1-42 (Homo sapiens, UniProt P05067); assay: ADDLs formation dot-blot assay (Aβ oligomerization); type: biochemical; conditions: for IC50: purified derivatives, Aβ1-42 10 nM, dot-blot densitometry at 4 hours, read-out: IC50, inhibition of ADDLs formation
T1 construct: an aliquot of Aβ1-42 was dissolved in anhydrous DMSO
Description: Using a high throughput dot blot assay recently developed for measuring Aβ oligomerization (L. Chang et al., J. Neuromol. Chem., 20, 305-313 (2003)), various beta-CD derivatives were evaluated for an ability to inhibit oligomerization of Aβ1-42. beta-CD (1) is a cyclic glucopyranose oligomer (FIG. 1), whose shape is reminiscent of a lamp-shade, frequently depicted schematically as compound 2 in FIG. 1. Actually three different hydroxyls are present in each sugar in the beta-CD molecule, which can be readily differentiated chemically. Additionally, no plane of symmetry exists in the molecule because the cyclic α-1,4-linkage forms a torus. Consequently, the primary hydroxyl groups are not equivalent when substituted. The end result of these structural features is that symmetry operations are not possible with different substitution patterns and each pattern represents a different compound. […]
ADDLs assay The assays were performed as set forth in Wang et al., J. Med. Chem., 47(13), pages 3329-3333 (2003). […] Time-dependent ADDLs formation was monitored by diluting 4 μl of […] Aβ/DMSO solutions with 196 μl of ice-cold F12 medium to 100 nM and 10 nM Aβ, respectively. […] These F12/CD solutions then were used in ADDLs assays, and the oligomer formation monitored as described. […]
ADDLs Western blot/dot blot assays For Western blots, samples were subjected to SDS-PAGE on 16.5% Tris-tricine gels at 100V […] for 1.5 to 2 hours. […] Visualization of proteins with chemiluminescent reagents was recorded by exposure to ECL film (Amersham-Pharmacia).
Dose response curves Dose response curves were prepared by performing the aforementioned dot-blot assays with Aβ1-42 (10 nM) in the presence of purified per-6-substituted-beta-CDs at the indicated concentrations. The response was determined for the dots at 4 hours using Kodak 1D imaging software and reported as log dose response of the ratio of beta-CD to Aβ1-42 as shown in FIG. 5.

PC12 cells = conditions: Camilleri et al. 1994; cited from earlier work

T1 sequence (P05067 672-713 limits assumed): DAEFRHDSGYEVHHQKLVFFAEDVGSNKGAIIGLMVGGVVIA

Compound | IC50 (Aβ1-42) | inhibitory activity in ADDLs formation assay (qualitative) (Aβ1-42; corresponding concentrations, same conditions as the purified derivatives) | effect on neurotoxic effects of Aβ1-40 (PC12 cells)
OC1C2OC(CNCc3ccco3)C(OC3OC(CNCc4ccco4)C(OC4OC(CNCc5ccco5)C(OC5OC(CNCc6ccco6)C(OC6OC(CNCc7ccco7)C(OC7OC(CNCc8ccco8)C(OC8OC(CNCc9ccco9)C(O2)C(O)C8O)C(O)C7O)C(O)C6O)C(O)C5O)C(O)C4O)C(O)C3O)C1O (stereo not drawn) [4a, per-furfurylamino-6-deoxy-beta-CD] | 540 nM | – | –
OC1C2OC(CNCc3ccccc3)C(OC3OC(CNCc4ccccc4)C(OC4OC(CNCc5ccccc5)C(OC5OC(CNCc6ccccc6)C(OC6OC(CNCc7ccccc7)C(OC7OC(CNCc8ccccc8)C(OC8OC(CNCc9ccccc9)C(O2)C(O)C8O)C(O)C7O)C(O)C6O)C(O)C5O)C(O)C4O)C(O)C3O)C1O (stereo not drawn) [5a, per-benzylamino-6-deoxy-beta-CD] | 460 nM | – | –
OC[C@H]1O[C@@H]2O[C@H]3[C@H](O)[C@@H](O)[C@@H](O[C@H]4[C@H](O)[C@@H](O)[C@@H](O[C@H]5[C@H](O)[C@@H](O)[C@@H](O[C@H]6[C@H](O)[C@@H](O)[C@@H](O[C@H]7[C@H](O)[C@@H](O)[C@@H](O[C@H]8[C@H](O)[C@@H](O)[C@@H](O[C@H]1[C@H](O)[C@H]2O)O[C@@H]8CO)O[C@@H]7CO)O[C@@H]6CO)O[C@@H]5CO)O[C@@H]4CO)O[C@@H]3CO [beta-CD, beta-cyclodextrin] | – | did not show any detectable inhibitory activity | substantially diminishes the neurotoxic effects

From patent US20050059634A1, “Per-6-substituted-per-6-deoxy-cyclodextrins, and use of the same to inhibit soluble beta-amyloid-peptide derived oligomers and to treat alzheimer's and related diseases” (priority 2003, published 2005)
